One compound from patent US9895367B2, “Formulation comprising phenylaminopyrimidine derivative as active agent” (NATCO PHARMA LIMITED, priority 2011, dated 2018) can be followed below.

The nature of series [1]: Solubility of NRC-AN-019 drug substance. The class given is physicochemical. The text has this:
NRC-AN-019 is a pale yellow to light brown coloured crystalline to amorphous powder. Its molecular formula is C25H17F6N5O and its relative molecular mass is 517.44. […] The drug substance is soluble in dimethyl formamide and dimethyl sulfoxide.

A short description of series [2]: Bioavailability study in rats (oral, LCMS of blood). The following applies: wistar albino male rats, fasted overnight, average. The class given is in vivo. The text has this: Four rats (wistar albino, male, weighing 120-180 grams) were divided into two sets of study (two rats in each set) and fasted overnight prior to dosing, but were permitted water ad libitum. The sample preparation and subsequent dilution was made as per protocol with a vehicle, followed by the administration of the sample through oral route. Blood samples were collected by puncturing retero-orbital sinus of the anaesthetized rats (with anesthetic ether) at definite intervals of 15, 30, 60, 120, 240, 360, 480 and 720 minutes post administration. The blood collection was done in prefilled heparin centrifugation tubes.
The blood samples collected were subjected for the subsequent centrifugation and followed by analytical procedure with the use of LCMS technique. The areas under the blood drug concentration versus time curves are calculated by the trapezoidal rule. The analysis was done with respect to AUC (area under curve), Cmax (maximum concentration) and Tmax (time of maximum concentration).

For another series, the system named is rats. The series is described as follows: Toxicological study, maximum tolerated oral dose in rats. It is filed as in vivo.
In series [3] the test system is PC3M (Prostate Cancer) Cell lines. The series can be described thus: MTT assay on PC3M cell lines. The following applies: Homo sapiens, PC-3M, 0.312×10^5 cells/mL, 72 hours. It is filed as cell-based. A general note: Tetrazolium dyes change colour on reduction, which living cells bring about.
The subject of series [4] is CAL-27 (Tongue squamous cell carcinoma) cell line. The series is described as follows: MTT assay on CAL-27 cell line. The following applies: Homo sapiens, CAL-27, 1.75×10^4 cells/mL, 72 hours. It is filed as cell-based.

The Cmax is the peak of the concentration-time curve. Broadly, the Tmax is the time at which the peak concentration occurs. For orientation: AUC means concentration integrated over time. High values mean high exposure, low ones low exposure. By IC50 is commonly meant the point on the concentration scale where inhibition reaches its midpoint. Read a high IC50 as weaker potency. For the compound `Cc1ccc(NC(=O)c2cc(C(F)(F)F)cc(C(F)(F)F)c2)cc1Nc1nccc(-c2cccnc2)n1` [NRC-AN-019, (3,5-bis-trifluoromethyl)-N-[4-methyl-3-(4-pyridin-3-yl-pyrimidin-2-ylamino)-pheny-1]-benzamide], the “solubility in aqueous buffer of pH 1.2” value in series [1] (aqueous buffer pH 1.2) is recorded as “very slightly soluble”. In series [1] (dimethyl formamide), the “solubility in dimethyl formamide” value is on record as “soluble”. Also, the “solubility in dimethyl sulfoxide” value in series [1] (dimethyl sulfoxide) was “soluble”. For the same compound, the “solubility in neutral/alkaline aqueous buffers” value in series [1] (neutral/alkaline aqueous buffers) is recorded as “insoluble”. Further, the solubility in water result in series [1] (water) is “practically insoluble”. For the same compound, the concentration in series [2] (rat) peaked (Cmax) at 35.2 ng/mL. Further, in series [2] (rat), the Tmax is 8.7 h. For the same compound, in series [2] (trapezoidal rule), the AUC was 430.0 ng·h/mL. Also, the “maximum tolerated oral dose” value in the series with rats is more than 5000 mg/kg bodyweight. Moreover, the results for the IC50 in series [3] and in series [4] were 4.38 µM and 1.44 µM, respectively.
